From the supplement of paper PMC10307832

Compound: COc1cc2/c(=N/c3ccc(Br)cc3F)nc[nH]c2cc1OCC1CCN(C)CC1 [Vandetanib] + Cc1cc(Nc2cc(N3CCN(C)CC3)nc(Sc3ccc(NC(=O)C4CC4)cc3)n2)n[nH]1 [Tozasertib] (partner 0.1 µM)
Experiment: relative viability (nuclei count vs DMSO), 5 days (fraction); higher = more cells survive
Procedure, shortened: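 Relative viability equals treated-well nuclei counts divided by vehicle-well nuclei counts. Counts came from 4× images of lung cancer cell lines grown in 1536-well plates for 5 days after pin-tool dosing on the day after seeding. Dosing used one drug alone or a fixed anchor-drug dose plus five library-drug doses (not always all listed) in √10 steps, and values are medians of duplicate plates.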

UMC-11 showed a relative viability (first compound 0.02 µM) of 0.204, a relative viability (first compound 0.06325 µM) of 0.187 and a relative viability (first compound 0.2 µM) of 0.175. For the same cell line, the relative viability (first compound 0.6325 µM) was 0.189 and the relative viability (first compound 2 µM) was 0.205.
